This note sets out measurements from patent EP0300390A1, “Trifluoromethyl-alkoxy-anilin, process for their preparation and their use in the ice-colour technique” (HOECHST AKTIENGESELLSCHAFT, priority 1987, dated 1989).

A short description of the data set: AMES test (mutagenicity). The class given is cell-based.

SMILES strings stand for the structures.

Consider `CCCCOc1ccc(C(F)(F)F)cc1N` [5-Trifluormethyl-2-n-butoxy-anilin], for which the AMES-Test result was “nicht-mutagen”.
